This note sets out measurements from ChEMBL document CHEMBL1201862, “PubChem BioAssay data set” (2004).

Common to all, as to experiment: NCI tumour cell line growth inhibition, 48 h
For assay [1], the system named is Hs-578T.
Assay [2] relates to SNB-78.
Assay [3] concerns LXFL 529.
Assay [4] relates to HOP-18.
In assay [5] the test system is DLD-1.
For assay [6], the system named is DMS-273.
The test system of assay [7] is KM-20L2.
The test system of assay [8] is XF498.

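1) Cells in 96-well plates. 2) Compound, 48 h, 5 concentrations. 3) Linear interpolation between surrounding doses. 4) Unreached endpoint = highest concentration. The concentration for 50% growth inhibition is given as GI50.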 Calls of active or inactive are those of the source. Rule as the data show it: active = GI50 up to about 1.1 µM and inactive = higher. Where only a bound is given, the exact number is not on record here.

As to `CCC1c2[nH]c3ccccc3c2C[C@H]2C(=O)NC(COC(C)(C)C)C(=O)N12` (stereo partly specified), the GI50 in assay [1] was 25.8 µM (inactive).

Take `CCCCOc1ccc(NC(=N)Nc2ccc(Cl)cc2)cc1`: the GI50 in assay [1] is 5.5 µM (inactive).

As to `COc1ccc2cc(C(=O)CCC(=O)O)ccc2c1`, the GI50 in assay [1] was > 100 µM (inactive).

In the case of `Cc1ccc(S(=O)(=O)NC(=O)NC2=NC(C)(C)N(c3ccc(Cl)c(Cl)c3)C(N)=N2)cc1`, the GI50 in assay [1] was 47.8 µM (inactive).

Take `CN(C)c1ccc(/C=N/c2ccc(-c3nc4ccccc4o3)cc2)cc1`: the GI50 in assay [1] is > 100 µM (inactive).

As to `CN(CCCNC(=O)c1cn(C)c2c1ccc1ccccc12)CCCNC(=O)c1cn(C)c2c1ccc1ccccc12`, the GI50 in assay [1] is 1.44 µM (inactive).

Consider `CC(C)C(=O)[C@@]1(C)SC[C@H]2CCN=C21`, for which the GI50 in assay [1] is > 100 µM (inactive).

For `[N-]=[N+]=C1C(=O)c2ccccc2-c2ccccc21`, in assay [1], the GI50 is 33 µM (inactive).

For `C=C(C)C(=O)CC[C@@H](C)[C@H]1[C@@H](OC2OC(CO)C(O)C(O)C2O)C[C@@]2(C)[C@@H]3C[C@H](O)C4C(C)(C)[C@@H](OC5OC(CO)C(O)C(O)C5O)CC[C@@]45C[C@@]35CC[C@]12C` (stereo partly specified), the GI50 in assay [1] was 91 µM (inactive).

As for `ClCCN1CCOC1=C1C=CC=C1`, the GI50 in assay [1] was > 100 µM (inactive).

Consider `CCOC(=O)CC1=N/C(=N/C(=N)N[N+](=O)[O-])SC1`, for which the GI50 in assay [2], in assay [3], in assay [4], in assay [5], in assay [6] and in assay [7] was > 100 µM (inactive) in each case.

Turning to `COc1ccc2c(c1)c(=O)c1c(NCCN(C)C)ccc3c(=O)n(CCN(C)C)c(=O)n2c31`, the GI50 in assay [1] was 0.178 µM (active).

For the compound `O=C(c1ccccc1)c1ccc(C(c2c(O)c3ccccc3oc2=O)c2c(O)c3ccccc3oc2=O)cc1`, in assay [1], the GI50 is 24.7 µM (inactive).

For `Fc1ccc2nc3n(c2c1)C(c1c(Cl)cccc1Cl)SC3` (stereo unspecified), the GI50 in assay [1] was > 100 µM (inactive).

With `CC1SC2=NC3=C(c4ccccc4C3=O)C(c3ccc(Br)cc3)N2C1=O` (stereo unspecified), the GI50 in assay [3] is 53 µM (inactive); in assay [5], 76 µM (inactive); in assay [6] it was > 100 µM (inactive); in assay [7], > 100 µM (inactive); in assay [8], 43.8 µM (inactive).

`COc1ccc2c(c1)C(=O)c1ccccc1C2`: the GI50 in assay [1] is 44.4 µM (inactive).

For the compound `COC(=O)/C=C1/OC(c2ccc(C)cc2)=C(Cl)C1=O`, in assay [1], the GI50 was 22.9 µM (inactive).

In the case of `CC1(Br)CC2OC3(Br)C=CC(C)(O)C2(CC1=O)C3(C)C` (stereo unspecified), the GI50 in assay [2] was > 100 µM (inactive); in assay [3], 98.9 µM (inactive); in assay [4] it was > 100 µM (inactive); in assay [5] it was 98.2 µM (inactive); in assay [6] it was > 100 µM (inactive); in assay [7], > 100 µM (inactive). In addition, the GI50 in assay [8] is > 90.4 µM (inactive).

On to `CC(C(=O)OCc1ccccc1)(c1ccco1)N1C(=O)OC(c2ccccc2)C1c1ccccc1` (stereo unspecified), for which, in assay [1], the GI50 is > 100 µM (inactive).

`CCc1cccc(C)c1NC(=O)C(=O)Cc1nc2ccccc2o1`: the GI50 in assay [2], in assay [3], in assay [4], in assay [5], in assay [7] and in assay [8] was > 100 µM (inactive) throughout.

In the case of `O=C1C2C(C(=O)N1O)N(Cc1ccccc1)C(=O)N2Cc1ccccc1` (stereo unspecified), the GI50 in assay [2], in assay [3], in assay [5], in assay [7] and in assay [8] was > 100 µM (inactive) in each case.

Take `CC(=O)Nc1ccc(S(=O)(=O)/N=C2\C=CC(=O)c3ccccc32)cc1`: in assay [1], the GI50 is 7.64 µM (inactive).

Regarding `CCOC(=O)c1cc(-c2ccc(OC)cc2)c([N+](=O)[O-])[nH]1`, the GI50 in assay [1] was > 10 µM (inactive).

Take `OC12CCCCCC1(N1CCOCC1)c1ccccc12` (stereo unspecified): the GI50 in assay [2], in assay [3], in assay [4], in assay [6] and in assay [7] was > 100 µM (inactive) each time.

On to `O=C(Cc1ccccc1)NN1C(=O)C(Cl)C1c1cc(Br)cc(Br)c1O` (stereo unspecified), for which the GI50 is 24.4 µM (inactive) in assay [2]; 13.5 µM (inactive) in assay [3]; 7.83 µM (inactive) in assay [4]; 8.81 µM (inactive) in assay [5]; 12.5 µM (inactive) in assay [6]; 24.7 µM (inactive) in assay [7]. Further, the GI50 in assay [8] is 19.8 µM (inactive).

Regarding `CCOC(CN(C)C(=S)Nc1cccc2ccccc12)OCC`, the GI50 in assay [1] was > 10 µM (inactive).

For `C#CC1(O)c2ccccc2C(=O)c2ccccc21`, the GI50 in assay [2] is 35.9 µM (inactive); in assay [3], > 100 µM (inactive); in assay [4], > 100 µM (inactive); in assay [6], > 100 µM (inactive); in assay [7] it was > 100 µM (inactive); in assay [8], 84.7 µM (inactive).

For the compound `Nc1nc2ncc(SCc3ccc(C(=O)NC(CCC(=O)O)C(=O)O)cc3)cc2c(=O)[nH]1` (stereo unspecified), the GI50 in assay [1] is > 100 µM (inactive).

Take `CC(C)=CCC\C(C)=C/C=C/C(C)=C\C=C\C(C)=C/C=C/C=C(C)\C=C\C=C(C)/C=C/C=C(/C)CCC=C(C)C`: the GI50 in assay [1] is > 100 µM (inactive).

Take `C/C(CC(=O)Nc1cccc(Cl)c1C)=N\NC(=O)c1ccncc1`: the GI50 in assay [2], in assay [3], in assay [5], in assay [6], in assay [7] and in assay [8] was > 100 µM (inactive) each time.

For the compound `CCOC(=O)c1ccc(Nc2cnc3cc(C(F)(F)F)ccc3n2)cc1`, the GI50 in assay [1] was > 100 µM (inactive).

As to `O=C(OCc1ccccc1)N1CCN(C(=O)OCc2ccccc2)CCN(C(=O)OCc2ccccc2)CCN(C(=O)OCc2ccccc2)CCN(C(=O)OCc2ccccc2)CC1`, the GI50 in assay [1] is 39.3 µM (inactive).

With `CC1(C)C2CCC1(C)C(NC(=O)COCCOCC(N)=O)C2` (stereo unspecified), the GI50 in assay [1] is > 100 µM (inactive).

With `OC1/C(=C/c2ccccc2)CNC/C1=C\c1ccccc1` (stereo unspecified), the GI50 in assay [2], in assay [3], in assay [4], in assay [5], in assay [6] and in assay [7] was > 100 µM (inactive) in each case.

Turning to `O=Cc1ccc2c(c1-c1c(C=O)ccc3c1OCO3)OCO2`, the GI50 in assay [2], in assay [3], in assay [4], in assay [5], in assay [6] and in assay [7] was > 100 µM (inactive) in each case.

On to `Cc1ccc(S(=O)(=O)N(CC(O)COc2ccccc2)c2c(F)c(F)cc(F)c2F)cc1` (stereo unspecified), for which the GI50 in assay [1] is 24.3 µM (inactive).

On to `CCOC(=O)c1sc2nc(SC)nc(Nc3ccc(OC)c(OC)c3)c2c1N`, for which, in assay [1], the GI50 is 17.7 µM (inactive).

For the compound `COC(=O)c1nc(Cl)nc(Cl)c1Cl`, the GI50 in assay [1] is 21.8 µM (inactive).

For `COc1ccc2c(c1)CCc1c(-c3n[nH]c4c3CCc3cc(OC)ccc3-4)n[nH]c1-2`, the GI50 was 44.1 µM (inactive) in assay [2]; 33.1 µM (inactive) in assay [3]; 25.8 µM (inactive) in assay [4]; 54.5 µM (inactive) in assay [5]; 17.4 µM (inactive) in assay [6]; 47.5 µM (inactive) in assay [7]. For the same compound, the GI50 in assay [8] is 32.8 µM (inactive).

In the case of `CCOC(=O)C1(C(N)=O)C(=O)c2ccncc2C1=O` (stereo unspecified), in assay [1], the GI50 is > 100 µM (inactive).

`O=C(Sc1sc(=S)sc1SC(=O)c1ccccc1)c1ccccc1`: the GI50 in assay [2] is > 100 µM (inactive); in assay [3], > 100 µM (inactive); in assay [4] it was > 100 µM (inactive); in assay [6], 53 µM (inactive); in assay [7] it was 48.2 µM (inactive); in assay [8], 55.2 µM (inactive).

For the compound `C=C(Cl)C(Cl)(CBr)CCC(Br)C(C)(C)Br` (stereo unspecified), in assay [1], the GI50 is 2.96 µM (inactive).

On to `C#CCC(N)(CO)C(=O)O` (stereo unspecified), for which the GI50 in assay [2], in assay [3], in assay [4], in assay [5], in assay [6] and in assay [8] was > 100 µM (inactive) throughout.

For `CC(C)NC(=O)OCc1c2c(n(C)c1COC(=O)NC(C)C)-c1cc(Cl)c(Cl)cc1CC2`, the GI50 in assay [1] was 32.1 µM (inactive).

For `Cc1c(CCCl)c(N=[N+]=[N-])n2c(nc3ccccc32)c1C#N`, the GI50 in assay [1] is 0.986 µM (active).

In the case of `COCC(OC)C(CC=C(C#N)C#N)OC` (stereo unspecified), the GI50 in assay [2], in assay [3], in assay [6], in assay [7] and in assay [8] was > 100 µM (inactive) each time.

Regarding `O=C1N=C(SC2OC(CO)C(O)C(O)C2O)S/C1=C\c1ccccc1` (stereo unspecified), the GI50 in assay [1] is > 100 µM (inactive).

On to `O=S(=O)(O)c1cc(S(=O)(=O)O)c2c(Nc3ccnc4ccccc34)ccc(S(=O)(=O)O)c2c1`, for which the GI50 in assay [1] is > 100 µM (inactive).

`O=S(=O)(O)c1ccc(/N=N\c2c(O)ccc3cc(Br)ccc23)cc1`: the GI50 in assay [1] was > 100 µM (inactive).

In the case of `CC(C)(O)[C@@H]1CCC(C)([C@H]2[C@@H](O)CC3(C)C4CC(OC5OC(CO)C(O)C(O)C5O)C5C(C)(C)[C@@H](OC6OCC(O)C(O)C6O)CC[C@@]56C[C@@]46CC[C@]23C)O1` (stereo partly specified), the GI50 in assay [2], in assay [3], in assay [4], in assay [5], in assay [6] and in assay [7] was > 100 µM (inactive) throughout. The GI50 in assay [8] is > 100 µM (inactive).

Regarding `OCC1OC(c2n[nH]c3c(O)ncnc23)C(O)C1O` (stereo unspecified), the GI50 in assay [1] was 33.8 µM (inactive).

For `O=C(Oc1cccc(Cl)c1)c1cc2cc(CCl)ccc2oc1=O`, the GI50 in assay [1] was 59.8 µM (inactive).

For the compound `N#Cc1ccc(/C=[N+](/C=c2ccc(=C=[N-])cc2)N(CCO)C2=NCCN2)cc1`, the GI50 in assay [1] is > 100 µM (inactive).

In the case of `NC(=O)c1ccc2c(c1)S(=O)(=O)c1ccccc1C2=O`, in assay [1], the GI50 was 58.6 µM (inactive).

Regarding `O=C(c1cccs1)N1CCCN(C(=O)c2cccs2)C1=S`, the GI50 in assay [1] is > 100 µM (inactive).

In the case of `CNc1nc(OC)c2c(n1)n(C)c[n+]2C` [HETEROMINE B], in assay [1], the GI50 is 31.6 µM (inactive).
